Assays:
HMC3 microglial cells [1] = test system: HMC3 microglial cells
HMC3 cells = experiment: Malonaldehyde (MDA) assay, lipid peroxidation in HMC3 cells; type: cell-based, Human; conditions: IL-1β-stimulated HMC3 cells; metaxalone 10, 20, 40 μg/mL; p<0.0001 vs. IL-1β
Excerpt: Malonaldehyde Assay. Metaxalone antioxidant effects were examined in HMC3 cells by measuring malonaldehyde (MDA) levels as a marker of lipid peroxidation, as previously described in detail. (See, Ceravolo, I. Et al., Health Potential of Aloe vera against Oxidative Stress Induced Corneal Damage: An “In Vitro” Study. Antioxidants 2021, 10, 318).

HMC3 microglial cells [2] = experiment: RT-qPCR mRNA expression in IL-1β-stimulated HMC3 microglial cells; type: cell-based, Human; conditions: metaxalone 10, 20, 40 μg/mL, p<0.0001 vs. IL-1β
Protocol: Human microglial HMC3 cell line (CRL-3304) was obtained from ATCC (American Type Culture Collection; Manassas, VA, USA). Cells were cultured in Eagle's minimum essential medium (EMEM) with a supplement of 10% fetal bovine serum (FBS) and 1% antibiotic mixture, and were incubated at 37° C. with 5% of CO2. Both medium and supplements were provided by ATCC (Manassas, VA, USA). Cells were seeded in 6-well plates at a density of 4×10^5 cells/well. A stock solution of metaxalone (Sigma Aldrich, Milan, Italy) was prepared by dissolving metaxalone in DMSO. Sixteen hours after plating (time 0), metaxalone was added at the doses of 10, 20, and 40 μg/mL 1 h following IL-1β stimulation (5 ng/mL; Sigma Aldrich, Milan, Italy). After 6 h cells were harvested for mRNA evaluation. In a separate set of plates, cells were incubated for 24 h before MTT assay to evaluate cell viability. The dose-response curve for IL-1β stimulation can be found at Supplemental FIG. S1. Total RNA was extracted from human microglial HMC3 for RT-qPCR using Trizol LS reagent (Invitrogen, Carlsbad, CA, USA). Two μg of total RNA was reverse transcribed in a final volume of 20 μL using a Superscript VILO kit (Invitrogen, Carlsbad, CA, USA). […] The final primer concentration used to carry out the analysis was 10 μM. Samples from each group were run in duplicate and β-actin was used as an endogenous control. Results were calculated using the 2-ΔΔCT method and expressed as n-fold increase in gene expression using control group as calibrator. […]. et al. Activation of A2A Receptor by PDRN Reduces Neuronal Damage and Stimulates WNT/β-CATENIN Driven Neurogenesis in Spinal Cord Injury. Front. Pharmacol. 2018, 9, 506. Pizzino, G. et al. Effects of the antagomiRs 15b and 200b on the altered healing pattern of diabetic mice. Br. J. Pharmacol. 2018, 175, 644-655.

SMILES: Cc1cc(C)cc(OCC2CNC(=O)O2)c1 (stereo not shown) [metaxalone, 5-[(3,5-dimethylphenoxy)methyl]-2-oxazolidinone]
- cell viability (MTT) (HMC3 microglial cells [1]): did not produce any toxic effect
- MDA levels (HMC3 cells): significant reduction
- IL-6 mRNA expression (HMC3 microglial cells [2]; IL-1β (5 ng/mL)-stimulated HMC3 cells (IL-6 increased by IL-1β), 6 h, dose-dependent): significantly reverted
- IL-13 mRNA expression (HMC3 microglial cells [2]; IL-1β (5 ng/mL)-stimulated HMC3 cells (IL-13 decreased by IL-1β), 6 h, dose-dependent): significantly reverted
- TNF-α mRNA expression (HMC3 microglial cells [2]; IL-1β (5 ng/mL)-stimulated HMC3 cells (TNF-α increased by IL-1β), 6 h, dose-dependent): significantly reverted
- NF-κB mRNA expression (HMC3 microglial cells [2]; IL-1β-stimulated HMC3 cells, dose-dependent): significantly reduced
- NRF-2 mRNA expression (HMC3 microglial cells [2]; IL-1β-stimulated HMC3 cells): significantly upregulated
- PGC-1α mRNA expression (HMC3 microglial cells [2]; IL-1β-stimulated HMC3 cells): marked increase
- PPARγ mRNA expression (HMC3 microglial cells [2]; IL-1β-stimulated HMC3 cells): marked increase
- MAO-A mRNA expression (HMC3 microglial cells [2]; IL-1β-stimulated microglia cells, dose-dependent): markedly reduced

Source: patent publication US20240197687A1, “METHODS OF TREATING NEUROINFLAMMATION AND INHIBITING MONOAMINE OXIDASE-A AND RESTORING/UPREGULATING/INCREASING IL-13 AND AND PGC-1 BY ADMINISTERING ORAL DOSAGE FORM CONTAINING MICRONIZED AND NONMICRONIZED PARTICULATE METAXALONE, ALGINIC ACID AND PROPYLENE GLYCOL ALGINATE” (Primus Pharmaceuticals, Inc., priority 2022, published 2024)
